Reference: ChEMBL document CHEMBL4261621, “Synthesis of enamino-2-oxindoles via conjugate addition between α-azido ketones and 3-alkenyl oxindoles: Cytotoxicity evaluation and apoptosis inducing studies” (Bioorg Med Chem Lett, 2018)
pIC50: −log10 of the molar value. Active and inactive are the calls of the source. No cut-off for these calls is given here.

Assays:
NCI-H460 [1] = test: Induction of apoptosis in human NCI-H460 cells assessed as cell shrinkage at 0.25 to 10 uM after 72 hrs by acridine orange/ethidium bromide staining based fluorescence microscopic analysis; assay type: functional
A549 = test: Cytotoxicity against human A549 cells at 30 uM after 48 hrs by MTT assay relative to control; assay type: functional
NCI-H460 [2] = test: Induction of apoptosis in human NCI-H460 cells assessed as necrotic cells at 1 uM after 72 hrs by Annexin V-alexa fluor 488/propidium iodide staining based flow cytometry (reference value: 0.34%); assay type: functional
HCT-15 = test: Cytotoxicity against human HCT15 cells at 30 uM after 48 hrs by MTT assay relative to control; assay type: functional
NCI-H460 [3] = test: Induction of apoptosis in human NCI-H460 cells assessed as late apoptotic cells at 5 uM after 72 hrs by Annexin V-alexa fluor 488/propidium iodide staining based flow cytometry (reference value: 0.34%); assay type: functional
NCI-H460 [4] = test: Cell cycle arrest in human NCI-H460 cells assessed as accumulation at G0/G1 phase at 2.5 uM after 24 hrs by propidium iodide staining based flow cytometry (reference value: 49.6%); assay type: functional
NCI-H460 [5] = test: Cell cycle arrest in human NCI-H460 cells assessed as accumulation at sub-G1 phase at 1 uM after 24 hrs by propidium iodide staining based flow cytometry (reference value: 0.99%); assay type: functional
NCI-H460 [6] = test: Cell cycle arrest in human NCI-H460 cells assessed as accumulation at sub-G1 phase at 2.5 uM after 24 hrs by propidium iodide staining based flow cytometry (reference value: 0.99%); assay type: functional
NCI-H460 [7] = test: Induction of apoptosis in human NCI-H460 cells assessed as apoptotic body formation at 0.25 to 10 uM after 72 hrs by acridine orange/ethidium bromide staining based fluorescence microscopic analysis; assay type: functional, cell-based
NCI-H460 [8] = test: Cell cycle arrest in human NCI-H460 cells assessed as accumulation at G0/G1 phase at 10 uM after 24 hrs by propidium iodide staining based flow cytometry (reference value: 49.6%); assay type: functional
NCI-H460 [9] = test: Cell cycle arrest in human NCI-H460 cells assessed as accumulation at G2/M phase at 2.5 uM after 24 hrs by propidium iodide staining based flow cytometry (reference value: 35.49%); assay type: functional
NCI-H460 [10] = test: Cell cycle arrest in human NCI-H460 cells assessed as accumulation at sub-G1 phase at 10 uM after 24 hrs by propidium iodide staining based flow cytometry (reference value: 0.99%); assay type: functional
NCI-H460 [11] = test: Induction of mitochondrial membrane potential loss in human NCI-H460 cells assessed as increase in depolarized cell population after 72 hrs by JC1 staining based flow cytometry; assay type: functional
NCI-H460 [12] = test: Inhibition of colony formation in human NCI-H460 cells supplemented with fresh medium containing compounds every 3 days measured after 7 days by crystal violet staining based assay; assay type: functional, cell-based
NCI-H460 [13] = test: Induction of apoptosis in human NCI-H460 cells assessed as chromatin condensation at 0.25 to 10 uM after 72 hrs by acridine orange/ethidium bromide staining based fluorescence microscopic analysis; assay type: functional, cell-based
NCI-H460 [14] = test: Cell cycle arrest in human NCI-H460 cells assessed as accumulation at S phase at 2.5 uM after 24 hrs by propidium iodide staining based flow cytometry (reference value: 9.93%); assay type: functional
NCI-H460 [15] = test: Induction of apoptosis in human NCI-H460 cells assessed as viable cells at 5 uM after 72 hrs by Annexin V-alexa fluor 488/propidium iodide staining based flow cytometry (reference value: 98.55%); assay type: functional; settings: NCI-H460, 72 h, read-out: Activity
NCI-H460 [16] = test: Induction of apoptosis in human NCI-H460 cells assessed as late apoptotic cells at 2.5 uM after 72 hrs by Annexin V-alexa fluor 488/propidium iodide staining based flow cytometry (reference value: 0.34%); assay type: functional
NCI-H460 [17] = test: Induction of apoptosis in human NCI-H460 cells assessed as viable cells at 10 uM after 72 hrs by Annexin V-alexa fluor 488/propidium iodide staining based flow cytometry (reference value: 98.55%); assay type: functional; settings: NCI-H460, 72 h, read-out: Activity
NCI-H460 [18] = test: Induction of apoptosis in human NCI-H460 cells assessed as viable cells at 2.5 uM after 72 hrs by Annexin V-alexa fluor 488/propidium iodide staining based flow cytometry (reference value: 98.55%); assay type: functional; settings: NCI-H460, 72 h, read-out: Activity
NCI-H460 [19] = test: Cell cycle arrest in human NCI-H460 cells assessed as accumulation at G2/M phase at 1 uM after 24 hrs by propidium iodide staining based flow cytometry (reference value: 35.49%); assay type: functional
NCI-H460 [20] = test: Induction of apoptosis in human NCI-H460 cells assessed as appearance of condensed nuclei at 0.25 to 10 uM after 72 hrs by DAPI staining based fluorescence microscopic analysis; assay type: functional, cell-based
NCI-H460 [21] = test: Induction of apoptosis in human NCI-H460 cells assessed as necrotic cells at 2.5 uM after 72 hrs by Annexin V-alexa fluor 488/propidium iodide staining based flow cytometry (reference value: 0.34%); assay type: functional
HeLa = test: Cytotoxicity against human HeLa cells after 72 hrs by MTT assay; assay type: functional, cell-based
NCI-H460 [22] = test: Cell cycle arrest in human NCI-H460 cells assessed as accumulation at G2/M phase at 5 uM after 24 hrs by propidium iodide staining based flow cytometry (reference value: 35.49%); assay type: functional
NCI-H460 [23] = test: Cytotoxicity against human NCI-H460 cells assessed as reduction in cell viability after 72 hrs by phase contrast microscopic analysis; assay type: functional, cell-based

SMILES: CCOC(=O)/C(=C(\N)C(=O)c1ccccc1)C1C(=O)N(C)c2ccc(F)cc21 (stereo unspecified)
- Activity (NCI-H460 [1]): Active
- Activity (A549): >50%
- Activity (NCI-H460 [2]): 0.24%
- Activity (HCT-15): >50%
- Activity (NCI-H460 [3]): 3.27%
- Activity (NCI-H460 [4]): 9.73%
- Activity (NCI-H460 [5]): 9.93%
- Activity (NCI-H460 [6]): 9.91%
- Activity (NCI-H460 [7]): Active
- Activity (NCI-H460 [8]): 9.18%
- Activity (NCI-H460 [9]): 64.03%
- Activity (NCI-H460 [10]): 11.66%
- Activity (NCI-H460 [11]): Dose-dependent effect
- inhibition (NCI-H460 [12]): Dose-dependent effect
- Activity (NCI-H460 [13]): Active
- Activity (NCI-H460 [14]): 64.98%
- viability at 5 µM (NCI-H460 [15]): 61.1%
- Activity (NCI-H460 [16]): 4.4%
- viability at 10 µM (NCI-H460 [17]): 40.4%
- viability at 2.5 µM (NCI-H460 [18]): 75.9%
- Activity (NCI-H460 [19]): 61.59%
- Activity (NCI-H460 [20]): Active
- Activity (NCI-H460 [21]): 0.34%
- pIC50 (HeLa): 5.52
- Activity (NCI-H460 [22]): 65.46%
- Activity (NCI-H460 [23]): Dose-dependent effect
